The text below walks through data of EP0617288B1, “Long emission wavelength chemiluminescent compounds and their use in test assays” (Novartis AG, priority 1993, dated 1994).

A short description of series [1]: Kinetic study on light emission (time course up to 10 seconds). Format: physicochemical. The settings on record: normalized to 10 seconds. The protocol:
A time course study over a period of up to 10 seconds was conducted to determine these percentages, by flashing the compounds and normalizing all the signals collected for different lengths of time to that of 10 seconds.

A short description of series [2]: Light emission spectra by Fast Spectral Scanning System (FSSS). Type of series: physicochemical. The settings on record: for emission spectrum peak: figure legends FIGS. 2A-2E, 3A-3J; for Emission Max: in 0.5 ml acetonitrile, Flashing Reagent #1 and #2, maximum could vary by 0-4 nm between determinations; for Range: spectral region with signal intensity of above 5% of peak height. As to the method:
The light emission spectra of LBAC's and the reference acridinium esters were determined by a Fast Spectral Scanning System (FSSS) of Photo Research (a division of Kollmorgen Corp) of Burbank, CA, U.S.A. The experiment was carried out in a dark room. Each sample was dissolved in HPLC grade acetonitrile at the concentration of 1 mg/ml or higher and diluted with the same solvent to obtain the sample solution in the concentration specified. A typical determination utilized 10 to 100 ug of each compound, with the exception of the angular benz[a]acridinium ester (2 mg), separately or mixed together in 0.5 ml acetonitrile contained in 13 x 100 mm borosilicate test tube. The tube was placed on a tube rack raised to a proper height. The FSSS optical head was placed in front of the tube at close distance and with its lens focused on the liquid in the tube. The sample solution was first treated with 0.35 ml of the Flashing Reagent #1 (Ciba Corning Diagnostics) containing 0.1 N HNO3 and 0.1% H2O2. […] The light which was generated instantaneously following the addition of the Reagent #2 was recorded by FSSS for 4 seconds except for 2-MeO-LEAE-Imidate which was recorded for 30 seconds starting from split second before the Reagent #2 was added.
Recorded emission spectra are shown in FIGS. 2A-2E, 3A-3J, and 4A-4D. FIGS. 2A-2E and 3A-3J show individual emission spectra of chemiluminescent compounds including an acridinium ring system and compounds including a benzacridinium ring system. […] The major portions of the original constituting spectra which remained unchanged were indeed non-overlapping. These important physical characteristics fulfill the prerequisite for two or more subclasses of chemiluminescent compounds to be utilized in test assays for detecting and/or quantitating at least two substances in a test sample, and particularly to multianalyte clinical diagnostic assays.

For the compound `Cc1cc(C(=O)ON2C(=O)CCC2=O)cc(C)c1OC(=O)c1c2cc(OCC[N+](C)(C)C)ccc2[n+](C)c2cc3ccccc3cc12` [2-QAE-LEAE-NHS, (2,6-Dimethyl-4-succinimidyloxycarbonyl)phenyl 5-Methyl-2-(trimethylammonium)ethoxy-benz[b]acridinium-12-carboxylate Difluorosulfonate], the “Percent signal released over different lengths of time” value in series [1] (0.5 s) is reported as 9%; in series [1] (1.0 s), 37%; in series [1] (2.0 s) it was 59%; in series [1] (4.0 s), 76%; in series [1] (6.0 s) it was 88%; in series [1] (10.0 s) it was 100%. Further, in series [2], the emission spectrum peak entry is reported as “≈ 550 nm”. For the same compound, the “Emission Max” value in series [2] was 550 nm. Moreover, in series [2], the Range is 510-700 nm.

For “[2,6-Dimethyl-4-(2-methoxyiminoethyl)]phenyl 2-Methoxy-5-methyl-benz[b]acridinium-12-carboxylate Dichloride [2-MeO-LEAE-Imidate]”, the “Percent signal released over different lengths of time” value in series [1] (0.5 s) was found to be 6%; in series [1] (1.0 s) it was 23%; in series [1] (2.0 s), 40%; in series [1] (4.0 s) it was 59%; in series [1] (6.0 s), 76%; in series [1] (10.0 s), 100%. Moreover, the emission spectrum peak entry in series [2] is “≈ 550 nm”. The “Emission Max” value in series [2] is recorded as 550 nm. Moreover, the Range in series [2] is on record as 500-710 nm.
